“Also recorded” adds a separate entry of the source.
Experiments:
anti-BCMA CAR T cells [1] = experiment: CD8 expression by flow cytometry; type: cell-based, human; conditions: seven normal donors, IL-2 and ZSTK474
Procedure: CD8 expression was determined using a fluorescently-labeled anti-CD8 antibody and flow cytometry. […] FIG. 10.

anti-BCMA CAR T cells [2] = experiment: CD62L expression on anti-BCMA CAR T cells by flow cytometry at end of culture; type: cell-based, human
Procedure: CAR T cells were cultured with either MK-2206 or triciribine phosphate-TCN (AKT inhibitors) or ZSTK474 (PI3K inhibitor). CAR T cells specific for B cell maturation antigen (BCMA) were used in these set of experiments. CAR T cell cultures were performed using a system directly scalable to large clinical manufacturing processes. […] 2×10^8 transducing units of lentivirus encoding anti-BCMA CARs were added one day after culture initiation. […] At the end of culture, the anti-BCMA CAR T cells were interrogated for phenotype.
(§1) Expression of CD62L on anti-BCMA CAR T cells was assessed by flow cytometry at the end of culture. Anti-BCMA CAR T cells were specifically identified using recombinant human BCMA-IgG Fc conjugated to PE. CD62L expression was determined with a co-stain using an antibody specific to CD62L. […] (FIG. 3).
Anti-BCMA CAR T cells cultures were prepared using a system directly scalable to large clinical manufacturing processes. […] 2×10^8 transducing units of lentivirus encoding anti-BCMA CARs were added one day after culture initiation. […] At the end of culture, the anti-BCMA CAR T cells were interrogated for phenotype.
as §1, with “7).” for “3).”

anti-BCMA CAR T cells [3] = experiment: CD127, CD197, CD38 co-expression by fluorescence-based flow cytometry; type: cell-based; conditions: seven donors, ten days of culture
Text: The mass cytometry data in Example 8 identified a set of cell surface markers that further characterizes the phenotype of CART cells cultured in the presence of ZSTK474. […] CAR T cells from seven donors cultured in the presence or absence of ZSTK474 were stained with fluorescently labeled antibodies to CD127, CD197, and CD38. […] FIG. 9.

anti-BCMA CAR T cells [4] = experiment: Tonic (antigen-independent) IFN-γ release by ELISA; type: cell-based; conditions: 14 donors; after ten days of culture; IFN-γ levels below 200 pg/mL represent no tonic activity
Procedure: Tonic activity of CAR T cells in the absence of antigen has been associated with reduced biological activity. […] Anti-BCMA CAR T cells cultures were prepared using a system directly scalable to large clinical manufacturing processes. […] 2×10^8 transducing units of lentivirus encoding anti-BCMA CARs were added one day after culture initiation. […] At the end of manufacture, an equivalent number of anti-BCMA CAR T cells were re-cultured for 24 hours in media alone. The amount of IFN-γ released in 24 hours was quantified by ELISA. In this assay IFN-γ levels below 200 pg/mL represent no tonic activity.

anti-BCMA CAR T cells [5] = experiment: Cell surface marker expression by multiparameter mass cytometry (CyTOF); type: cell-based
Procedure: Expression analysis of 29 additional cell surface markers on anti-BCMA CAR T cells cultured with IL-2 and ZSTK474 was performed using multiparameter mass cytometry (CyTOF) and compared with CAR T cells cultured in IL-2 alone.

T cells [6] = experiment: CD62L expression on T cells cultured with MK-2206; type: cell-based, human
Procedure: Peripheral blood mononuclear cells (PBMC) are a heterogeneous cellular population containing T cells. PBMC were harvested from normal donors and labeled with a fluorescent dye (CellTrace® Violet, Molecular Probes), whose intensity is progressively diluted by a factor of two with each cell division. The labeled PBMCs were used as a source of cells for T cell expansion. […] The impact of MK-2206 on cell division was assayed by evaluating CellTrace Violet dilution with flow cytometry after the addition of 0.025 μM, 0.074 μM, 0.222 μM, 0.67 μM, or 2.0 μM, MK-2206 to the T cultures at day 0. […] A pairwise t test was performed on all day seven cultures; (each concentration of MK-2206 was compared to 0 μM MK-2206: the cultures were not statistically different at the p≤0.05 level). The purpose of this experiment was to determine the effect of Akt inhibitors on T cell markers for T cell potency. The impact of MK-2206 (Selleckchem) on T cell potency was assessed by measuring CD62L expression in the T cell cultures manufactured in Example 1. Mouse models have shown that CD62L expression identifies potent T cells; T cells with greater anti-tumor efficacy after adoptive transfer. […] FIG. 2. A pairwise T test was performed on all day seven cultures (each concentration of MK-2206 was compared to 0 μM MK-2206: *p<0.05, **p<0.01).

anti-BCMA CAR T cells [7] = experiment: Integrated copies of anti-BCMA CAR (vector copy number) by quantitative PCR; type: cell-based, human; conditions: end of culture, four normal donors, 1×10^8 transducing units lentivirus
Procedure: (§2) 1×10^8 transducing units of lentivirus encoding anti-BCMA CARs were added one day after culture initiation and at the end of culture, the anti-BCMA CAR T cells were interrogated for genomic integration and cell surface expression of the anti-BCMA CAR.
Integrated copies of the anti-BCMA CAR were assessed by quantitative PCR at the end of culture using primers that detect the vector or the genomic control RNAseP.

T cells [8] = experiment: T cell proliferation by CellTrace Violet dilution (flow cytometry); type: cell-based, human
Procedure: Peripheral blood mononuclear cells (PBMC) are a heterogeneous cellular population containing T cells. PBMC were harvested from normal donors and labeled with a fluorescent dye (CellTrace® Violet, Molecular Probes), whose intensity is progressively diluted by a factor of two with each cell division. The labeled PBMCs were used as a source of cells for T cell expansion. […] The impact of MK-2206 on cell division was assayed by evaluating CellTrace Violet dilution with flow cytometry after the addition of 0.025 μM, 0.074 μM, 0.222 μM, 0.67 μM, or 2.0 μM, MK-2206 to the T cultures at day 0. […] A pairwise t test was performed on all day seven cultures; (each concentration of MK-2206 was compared to 0 μM MK-2206: the cultures were not statistically different at the p≤0.05 level).

anti-BCMA CAR T cells [9] = experiment: Cell surface expression of anti-BCMA CAR by flow cytometry; type: cell-based, human; conditions: end of culture, four normal donors
Procedure: as §2
Expression of the anti-BCMA CAR on the surface of T cells was assessed by flow cytometry at the end of culture. Anti-BCMA CAR T cells were specifically identified using recombinant human BCMA-IgG Fc conjugated to PE.

[10] = Example 3: ten days of culture with IL-2 and optimized dose of inhibitor, three normal donors
[11] = Example 7: ten days of culture with IL-2 and optimized dose of inhibitor, four normal donors

Compound | CD8 expression vs IL-2 alone (anti-BCMA CAR T cells [1]) | CD62L expression on anti-BCMA CAR T cells vs IL-2 alone (anti-BCMA CAR T cells [2]; [10]) | CD62L expression on anti-BCMA CAR T cells vs IL-2 alone (anti-BCMA CAR T cells [2]; [11]) | anti-BCMA CAR T cells co-expressing CD127, CD197 and CD38 vs IL-2 alone (anti-BCMA CAR T cells [3]) | IFN-γ released in 24 hours in media alone (tonic activity) (anti-BCMA CAR T cells [4]) | percentage of cells co-expressing CD127, CD197 and CD38 vs IL-2 alone (Venn diagrams) (anti-BCMA CAR T cells [5]; CD62L positive anti-BCMA T cells, ten days of culture) | anti-BCMA CAR T cells co-expressing CD127, CD197 and CD38 (anti-BCMA CAR T cells [5]; CyTOF, CD62L positive cells, ten days of culture) [%] | expression of CD127, CD197 and CD38 vs IL-2 alone (anti-BCMA CAR T cells [5]; CyTOF, anti-BCMA CAR T cells cultured with IL-2 and ZSTK474) | CD62L expression on T cells vs no treatment control (T cells [6]; seven days of culture, all concentrations of MK-2206 tested, in presence of IL-2) | CD62L expression on T cells vs no treatment control (T cells [6]; three days of culture with MK-2206) | integrated copies of the anti-BCMA CAR vs IL-2 only (anti-BCMA CAR T cells [7]) | T cell division / proliferation vs vehicle or non-treated controls (T cells [8]; seven days of culture, 0.025-2.0 μM MK-2206, IL-2, pairwise t test p≤0.05) | T cell division / proliferation vs no treatment control (T cells [8]; three days of culture, 0.025-2.0 μM MK-2206, IL-2, CD3 and CD28 antibodies) | anti-BCMA CAR expression on the surface of T cells vs IL-2 alone (anti-BCMA CAR T cells [9])
FC(F)c1nc2ccccc2n1-c1nc(N2CCOCC2)nc(N2CCOCC2)n1 [ZSTK474] | significantly higher CD8 expression; also recorded: increased percentage of CD8 expressing anti-BCMA CAR T cells | increased CD62L expression; also recorded: significantly higher CD62L expression | significantly higher CD62L expression | significant increase; also recorded: increase in the percentage of cells co-expressing CD127, CD197 and CD38 | consistent with lacking tonic activity; also recorded: did not significantly increase | increase in the percentage of cells co-expressing CD127, CD197 and CD38 | 24.5 | increased expression |  |  |  |  |  | 
Nc1nc(N)c2nc(-c3cccc(O)c3)cnc2n1 [TG100713] |  |  | significantly higher CD62L expression |  |  |  |  |  |  |  |  |  |  | 
NC1(c2ccc(-c3nc4ccn5c(=O)[nH]nc5c4cc3-c3ccccc3)cc2)CCC1 [MK-2206] |  | significantly higher CD62L expression | significantly higher CD62L expression |  |  |  |  |  | significantly increases CD62L expression; also recorded: significant higher levels of CD62L expression | not substantially different | significantly more integrated copies | no statistically significant differences in T cell division; also recorded: not substantially different | did not substantially decrease T cell division; also recorded: only slightly decreased | significantly higher CAR expression

From US11479755B2, “T cell compositions” (2seventy bio, Inc., priority 2015, dated 2022)
